Measured values: PubChem BioAssay (NCI)
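All cell lines were grown in 96-well plates and treated with compound for 48 hours. GI50 marks 50% less growth. The concentration for full growth arrest is given as TGI.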

How the values were obtained:
Assay in all cases: NCI-60 cell line screen, 48 h
[1] = test system: HCC-2998 colon
[2] = test system: M14 melanoma
[3] = test system: HT29 colon
[4] = test system: HCT-15 colon
[5] = test system: OVCAR-5 ovarian
[6] = test system: SW-620 colon
[7] = test system: MOLT-4 leukemia
[8] = test system: LOX IMVI melanoma
[9] = test system: SF-539 CNS
[10] = test system: SK-MEL-5 melanoma

Row | SMILES | TGI [1] [µM] | TGI [2] [µM] | TGI [3] [µM] | TGI [4] [µM] | TGI [5] [µM] | TGI [6] [µM] | TGI [7] [µM] | TGI [8] [µM] | TGI [9] [µM] | TGI [10] [µM] | GI50 [1] [µM] | GI50 [2] [µM] | GI50 [3] [µM] | GI50 [4] [µM] | GI50 [5] [µM] | GI50 [6] [µM] | GI50 [7] [µM] | GI50 [8] [µM] | GI50 [9] [µM] | GI50 [10] [µM]
1 | CC(C(O)c1ccccc1)[N+](=O)[O-] (centres undefined) | 30.5 | 72 | 71.8 | 43.4 | 65.6 | > 100 | 4.88 | 6.02 | 49.1 | 39.1 |  |  |  |  |  |  |  |  |  | 
2 | CN1CCN(c2ccc3nc(-c4ccc5nc(-c6ccc(N(C)CCCl)cc6)[nH]c5c4)[nH]c3c2)CC1 | 1.88 | 3.42 | 0.675 | 26.1 | 12.4 | 1.22 | 0.357 | 0.218 | 0.462 | 0.517 |  |  |  |  |  |  |  |  |  | 
3 | OC1NC2CC3NC(O)C(O)NC3CC2NC1O (centres undefined) | > 100 | > 100 | > 100 | > 100 | > 100 | > 100 | > 100 | > 100 | > 100 | > 100 |  |  |  |  |  |  |  |  |  | 
4 | Cc1cc2nc(NS(=O)(=O)c3cc(C)c(Cl)cc3S)[nH]c2cc1C | > 100 | > 100 | > 100 | > 100 | > 100 | > 100 | > 100 | > 100 | > 100 | > 100 |  |  |  |  |  |  |  |  |  | 
5 | O=C(OCc1c(-c2ccccc2)nn(-c2ccccc2)c1COC(=O)Oc1ccccc1)Oc1ccccc1 | > 100 | > 100 | > 100 | > 100 | > 100 | > 100 | > 100 | > 100 | > 100 | > 100 |  |  |  |  |  |  |  |  |  | 
6 | CC(Nc1cc(=O)n(C)c(=O)[nH]1)c1ccccc1 (centres undefined) | > 100 | > 100 | > 100 | > 100 | > 100 | > 100 | > 100 | > 100 | > 100 | > 100 |  |  |  |  |  |  |  |  |  | 
7 | CCNC(=O)CCCCC(=O)c1c(C)[nH]c(/C=C2\N=C(c3ccc[nH]3)C=C2OC)c1C | 7.9 | 7.13 | 7.68 | 4.4 | 20.6 | 3.51 | > 100 | 3.65 | 3.34 | 24.9 | 2.42 | 2.68 | 2.34 | 1.83 | 6.01 | 1.94 | 2.31 | 1.76 | 1.59 | 11.7
8 | CCCCCCCCC[C@@H]1C[C@@H]2CCC3C(C(=O)OCCCCNC(=O)OCc4ccccc4)=C(C)NC(=N1)N32 (some centres undefined) | 11.1 | 6.97 | 12.9 | 8.06 | 21.4 | 14.2 | 6.41 | 4.31 | 14.4 | 2.93 |  |  |  |  |  |  |  |  |  | 
9 | COc1ccc(CCNC(=S)/N=C\C2=C(O)c3ccccc3C2=O)cc1OC | > 100 | > 100 | > 100 | > 100 | > 100 | > 100 | > 100 | > 100 | > 100 | > 100 |  |  |  |  |  |  |  |  |  | 
10 | CCOC(=O)c1[nH]n(-c2ccccc2)c(=O)c1C=NC(=S)C(N)=S | > 100 | 73.3 | > 100 | > 100 | > 100 | > 100 | > 100 | > 100 | 57.4 | 40.3 |  |  |  |  |  |  |  |  |  | 
11 | C/C(=N\Nc1ncnc2ccccc12)c1ccccn1 | 36 | 33 | > 46.6 | > 56.8 | 64.6 | 45.6 | > 9.41 | 5.45 | 3.29 | 13.2 |  |  |  |  |  |  |  |  |  | 
12 | N#CCCCCC12C3C(=O)N(c4ccccc4)C(=O)C3ON1O[C@@H]1C(=O)N(c3ccccc3)C(=O)[C@@H]12 (some centres undefined) | > 100 | > 100 | > 100 | > 100 | > 100 | > 100 | > 100 | > 100 | > 100 | > 100 |  |  |  |  |  |  |  |  |  | 
13 | CC1(C)N=C(/C(C#N)=[N+](/[O-])C(=O)c2ccccc2)C(C)(C)N1O | > 100 | > 100 | > 100 | > 100 | > 100 | > 100 | > 100 | > 100 | > 100 | > 100 |  |  |  |  |  |  |  |  |  | 
14 | COc1ccc2c(c1)Cc1c-2[nH]c2cc3c(cc2c1=O)OCO3 | 51 | 51.2 | 19.9 | > 100 |  | > 100 | 41.9 | 34.2 | 30.6 | 19.4 |  |  |  |  |  |  |  |  |  | 
15 | Cc1cc(NS(=O)(=O)c2ccc(NC(=O)c3cccc4c(NNc5ccc(S(N)(=O)=O)cc5)c5ccccc5nc34)cc2)no1 | 92.9 | > 100 | 73.2 | > 100 | > 100 | > 100 | 87.9 | 86.1 | > 100 | > 100 |  |  |  |  |  |  |  |  |  | 
16 | O=C(O)C1(CC(CCCN2CCCCC2)c2ccccc2)CCCC1 (centres undefined) | > 100 | > 100 | > 100 | > 100 | > 100 | > 100 | > 100 | > 100 | > 100 | > 100 |  |  |  |  |  |  |  |  |  | 
17 | CC(C)(CO)NC(=O)c1cccc(C(=O)NC(C)(C)CO)c1Br | > 100 | > 100 | > 100 | > 100 | > 100 | > 100 | > 100 | > 100 | > 100 | > 100 |  |  |  |  |  |  |  |  |  | 
18 | COc1cc(C(=O)OC2CC(C)=CC[C@@]3(C)CC[C@](O)(C(C)C)C23)ccc1O (some centres undefined) | 28.8 | 33.1 | 29.8 | 35.3 | 32.6 | 55.3 | 40.6 | 30.6 | 29.7 | 32.8 |  |  |  |  |  |  |  |  |  | 
19 | Cc1noc(C)c1N=Nc1ccc2nonc2c1N | > 100 | > 100 | > 100 | > 100 | > 100 | > 100 | > 100 | > 100 | 92.5 | > 100 |  |  |  |  |  |  |  |  |  | 
